Experimental data from EP2649983A1, “Compounds which inhibit neuronal exocytosis (II)” (Lipotec, S.A., priority 2012, dated 2013).
Residues, ends and D or L forms follow the SMILES beside them. No end group written: not given here. *: point of attachment. Palmitoyl = CCCCCCCCCCCCCCCC(=O)*; NHhexadecyl = CCCCCCCCCCCCCCCCN*; Myristoyl = CCCCCCCCCCCCCC(=O)*

Columns and labels:
SNARE complex [1] = test: Inhibition of SNARE complex formation (competition versus SNAP-25), complex detected by ELISA; format: binding
Protocol: With the aim of determining the capacity of inhibition of the SNARE complex formation by the compounds of the invention, the competitive inhibition of the compounds compared to SNAP-25 was studied with regards to the formation of this complex. The proportion of SNARE complex formed was determined by the ELISA technique, using one of the proteins from the complex bound to GST. In a 96-well plate VAMP was immobilized (using a 0.037 µM solution) and subsequently the free spaces were blocked with BSA (3%). Parallel to this process, SNAP-25 bound to GST (0.0185 µM), syntaxin (0.037 µM) and a compound of the invention (2.5 mM and 0.5 mM compounds) were incubated for 1 hour. After incubation, the samples were transferred to the plate with immobilized VAMP and were incubated for 1 hour to allow the formation of the SNARE complex. Afterward, the plate was washed and the complex was detected by a primary antibody anti-GST (Antibody anti-GST epitope TAG, Fisher Cat. no:PA1-982A). The reading was carried out at a wavelength of 490 nm in a TECAN GENios spectrophotometric reader.
Table 4 showns the results of the competitive inhibition of the formation of the SNARE complex by the compounds of the invention versus SNAP-25. The percentage of inhibition of the formation of the complex is inversely proportional to the quantity of SNARE complex spectrophotometrically detected.

SNARE complex [2] = test: Inhibition of SNARE complex formation, complex detected by electrophoresis (SDS-PAGE); format: binding
Protocol: VAMP (6 µM), syntaxin (6 µM) and the compound of the invention (5 mM or 1 mM compounds) were incubated for 3 hours. Subsequently, SNAP-25 (0.6 µM) was added and the mixture was incubated for an additional 15 hours to allow the formation of the SNARE complex. After incubation, the loading buffer (Laemli Simple Buffer) was added and the mixture was analyzed by 10% acrylamide SDS-PAGE in gel. The amount of complex was determined by MediaCybernetics image analysis software Image-Pro Plus.
The percentage of inhibition of the formation of the complex is inversely proportional to the quantity of SNARE complex detected.

[3] = test system: human neuroblastoma cell line; test: Release of noradrenaline induced by TPA/ionomycin in a neuroblastoma cell line, quantified by ELISA; format: cell-based; settings: 60 minutes pre-incubation, TPA/ION = 100.00
Protocol: The induction of the release of noradrenaline with TPA (12-O-tetradecanoylphorbol-13-acetate)/lonomycin enables direct measurement of neuronal exocytosis. For the study of the inhibitory effect of the compounds of the invention on the release of noradrenaline, cells of a human neuroblastoma cell line were pre-incubated (1x10^6 cells/well) for 60 minutes with the compound of the invention (1 µM, 10 µM, 100 µM, 500 µM or 1 mM compounds), and afterward the release of noradrenaline was induced. The release of the noradrenaline neurotransmitter was induced by an 8 minute pretreatment with a solution of 12-O-tetradecanoylphorbol-13-acetate (TPA) 100 nM, which mobilized the intracellular vesicles which contained the neurotransmitter; followed by a 5 minute incubation with TPA/lonomycin (100 nM/10 µM), which induced the release of the neurotransmitter contained in these vesicles. […] For this, absorbance at 405 nm was measured in Thermo Scientific Multiskan Ascent equipment.
The blocking of the SNARE complex by the compounds of the invention lead to an inhibition of neuronal exocytosis and therefore, a decrease in the levels of released noradrenaline (Table 6).

[4] = concentration of compound 2.5 mM
[5] = concentration of compound 0.5 mM

With `CCCCCCCCCCCCCCCCNC(=O)[C@H](CCSC)NC(=O)[C@H](Cc1c[nH]c2ccccc12)NC(=O)[C@H](CCCNC(=N)N)NC(=O)[C@H](CCCCN)NC(=O)[C@H](CC(C)C)NC(=O)[C@H](CC(=O)O)NC(=O)[C@H](CCC(=O)O)NC(C)=O` [Ac-SEQ ID NO:14-NH-(CH2)15-CH3] (Ac-EDLKRWM-NHhexadecyl) the “% inhibition formation SNARE complex” value (SNARE complex [1]; [4]) was 35%.
With `CCCCCCCCCCCCCC(=O)N[C@@H](CC(N)=O)C(=O)N[C@@H](Cc1c[nH]cn1)C(=O)N[C@@H](Cc1ccccc1)C(=O)N[C@@H](CC(C)C)C(=O)N[C@@H](CC(N)=O)C(=O)N[C@@H](Cc1c[nH]c2ccccc12)C(=O)N[C@@H](CCSC)C(N)=O` [Myr-SEQ ID NO:15-NH2] (Myristoyl-NHFLNWM-NH2) the “% inhibition formation SNARE complex” value (SNARE complex [2]; concentration of compound 1 mM) was 23% and the “% inhibition formation SNARE complex” value (SNARE complex [2]; concentration of compound 5 mM) was 76%.
`CCCCCCCCCCCCCCCC(=O)N[C@@H](CCC(=O)O)C(=O)N[C@@H](Cc1c[nH]cn1)C(=O)N[C@@H](CC(C)C)C(=O)N[C@@H](CCCCN)C(=O)N[C@@H](CCC(N)=O)C(=O)N[C@@H](Cc1c[nH]c2ccccc12)C(=O)N[C@@H](CCSC)C(N)=O` [Palm-SEQ ID NO:1-NH2] (Palmitoyl-EHLKQWM-NH2) was tested, and the “% inhibition formation SNARE complex” value (SNARE complex [1]; [5]) was 21% and the “% inhibition formation SNARE complex” value (SNARE complex [1]; [4]) was 47%.
With `CCCCCCCCCCCCCCCC(=O)N[C@@H](CCC(N)=O)C(=O)N[C@@H](Cc1c[nH]cn1)C(=O)N[C@@H](CC(C)C)C(=O)N[C@@H](Cc1c[nH]cn1)C(=O)N[C@@H](CC(N)=O)C(=O)N[C@H](C(=O)N[C@@H](CCSC)C(N)=O)C(C)C` [Palm-SEQ ID NO:3-NH2] (Palmitoyl-QHLHNVM-NH2) the “% inhibition formation SNARE complex” value (SNARE complex [1]; [4]) was 51%.
In the case of `CCCCCCCCCCCCCCCC(=O)N[C@@H](CCC(=O)O)C(=O)N[C@@H](CC(=O)O)C(=O)N[C@@H](CC(C)C)C(=O)N[C@@H](CCCCN)C(=O)N[C@@H](CCCNC(=N)N)C(=O)N[C@@H](Cc1c[nH]c2ccccc12)C(=O)N[C@@H](CCSC)C(N)=O` [Palm-SEQ ID NO:14-NH2] (Palmitoyl-EDLKRWM-NH2), the “% inhibition formation SNARE complex” value (SNARE complex [2]; concentration of compound 5 mM) is reported as 93%.
`CCCCCCCCCCCCCCCC(=O)N[C@@H](CC(N)=O)C(=O)N[C@@H](Cc1c[nH]cn1)C(=O)N[C@@H](Cc1ccccc1)C(=O)N[C@@H](CC(C)C)C(=O)N[C@@H](CC(N)=O)C(=O)N[C@@H](Cc1c[nH]c2ccccc12)C(=O)N[C@@H](CCSC)C(N)=O` [Palm-SEQ ID NO:15-NH2] (Palmitoyl-NHFLNWM-NH2) was tested, and the “% inhibition formation SNARE complex” value (SNARE complex [1]; [4]) was 21%, the “% inhibition formation SNARE complex” value (SNARE complex [2]; concentration of compound 1 mM) was 22% and the “% inhibition formation SNARE complex” value (SNARE complex [2]; concentration of compound 5 mM) was 74%.
In the case of `CCCCCCCCCCCCCCCC(=O)N[C@@H](CC(=O)O)C(=O)N[C@@H](Cc1c[nH]cn1)C(=O)N[C@@H](Cc1ccccc1)C(=O)N[C@@H](CCC(N)=O)C(=O)N[C@@H](CCC(N)=O)C(=O)N[C@@H](CCCNC(=N)N)C(=O)N[C@@H](CCSC)C(N)=O` [Palm-SEQ ID NO:24-NH2] (Palmitoyl-DHFQQRM-NH2), the “% inhibition formation SNARE complex” value (SNARE complex [1]; [5]) is reported as 36%, the “% inhibition formation SNARE complex” value (SNARE complex [2]; concentration of compound 1 mM) is reported as 17% and the “% inhibition formation SNARE complex” value (SNARE complex [2]; concentration of compound 5 mM) is reported as 66%.
With `CCCCCCCCCCCCCCCC(=O)N[C@@H](CC(=O)O)C(=O)N[C@@H](Cc1c[nH]cn1)C(=O)N[C@@H](Cc1ccccc1)C(=O)N[C@@H](CC(C)C)C(=O)N[C@@H](CC(=O)O)C(=O)N[C@@H](Cc1c[nH]c2ccccc12)C(=O)N[C@@H](CCSC)C(N)=O` [Palm-SEQ ID NO:25-NH2] (Palmitoyl-DHFLDWM-NH2) the “% inhibition formation SNARE complex” value (SNARE complex [1]; [4]) was 53% and the “% inhibition formation SNARE complex” value (SNARE complex [2]; concentration of compound 1 mM) was 36%.
In the case of `CCCCCCCCCCCCCCCC(=O)N[C@@H](CC(=O)O)C(=O)N[C@@H](Cc1c[nH]cn1)C(=O)N[C@@H](Cc1ccccc1)C(=O)N[C@@H](CC(C)C)C(=O)N[C@@H](CC(N)=O)C(=O)N[C@@H](Cc1c[nH]c2ccccc12)C(=O)N[C@@H](CCSC)C(N)=O` [Palm-SEQ ID NO:34-NH2] (Palmitoyl-DHFLNWM-NH2), the “% inhibition formation SNARE complex” value (SNARE complex [1]; [4]) is reported as 51%.
With Ac-DHFLDWM-NH2 [Ac-SEQ ID NO:25-NH2] the “% RELEASED NORADRENALINE Average” value ([3]; 1 µM) was 99.59%, the “% RELEASED NORADRENALINE Average” value ([3]; 10 µM) was 94.48% and the “% RELEASED NORADRENALINE Average” value ([3]; 100 µM) was 74.79%. The “% RELEASED NORADRENALINE Average” value ([3]; 500 µM) was 48.07% and the “% RELEASED NORADRENALINE Average” value ([3]; 1000 µM) was 41.05%.
For Ac-DHFQQRM-NH2 [Ac-SEQ ID NO:24-NH2], the “% RELEASED NORADRENALINE Average” value ([3]; 1 µM) was 90.63%, the “% RELEASED NORADRENALINE Average” value ([3]; 10 µM) was 97.06% and the “% RELEASED NORADRENALINE Average” value ([3]; 100 µM) was 88.95%. For the same molecule, the “% RELEASED NORADRENALINE Average” value ([3]; 500 µM) was 78.11% and the “% RELEASED NORADRENALINE Average” value ([3]; 1000 µM) was 67.90%.
In the case of Ac-EDLKRWM-NH2 [Ac-SEQ ID NO:14-NH2], the “% RELEASED NORADRENALINE Average” value ([3]; 10 µM) is reported as 84.96%, the “% RELEASED NORADRENALINE Average” value ([3]; 100 µM) is reported as 85.97% and the “% RELEASED NORADRENALINE Average” value ([3]; 1000 µM) is reported as 45.78%.
With Ac-EHLKQWM [Ac-SEQ ID NO:1-OH] the “% inhibition formation SNARE complex” value (SNARE complex [1]; [5]) was 29%.
In the case of Ac-EHLKQWM-NH2 [Ac-SEQ ID NO:1-NH2], the “% RELEASED NORADRENALINE Average” value ([3]; 1 µM) is reported as 96.14%, the “% RELEASED NORADRENALINE Average” value ([3]; 10 µM) is reported as 93.07% and the “% RELEASED NORADRENALINE Average” value ([3]; 100 µM) is reported as 79.59%. The “% RELEASED NORADRENALINE Average” value ([3]; 500 µM) was 49.08% and the “% RELEASED NORADRENALINE Average” value ([3]; 1000 µM) was 42.48%.
With EHLKQWM-NH2 [H-SEQ ID NO:1-NH2] the “% inhibition formation SNARE complex” value (SNARE complex [1]; [5]) was 30% and the “% inhibition formation SNARE complex” value (SNARE complex [1]; [4]) was 58%.
